The values that follow come from article PMC4769319, “Cohesin Releases DNA through Asymmetric ATPase-Driven Ring Opening” (Molecular Cell, 2016).

The assay has as its target T1, Smc1/Smc3 heterodimer with Scc1-C (cohesin) (Saccharomyces cerevisiae, UniProt P32908+P47037, P47037:K38I, form not given).
T1 construct: N-terminal tags; Sf9 insect cells; fluorescently labelled for MST; with Sister chromatid cohesion protein 1
T1 sequence (P32908 1-1225): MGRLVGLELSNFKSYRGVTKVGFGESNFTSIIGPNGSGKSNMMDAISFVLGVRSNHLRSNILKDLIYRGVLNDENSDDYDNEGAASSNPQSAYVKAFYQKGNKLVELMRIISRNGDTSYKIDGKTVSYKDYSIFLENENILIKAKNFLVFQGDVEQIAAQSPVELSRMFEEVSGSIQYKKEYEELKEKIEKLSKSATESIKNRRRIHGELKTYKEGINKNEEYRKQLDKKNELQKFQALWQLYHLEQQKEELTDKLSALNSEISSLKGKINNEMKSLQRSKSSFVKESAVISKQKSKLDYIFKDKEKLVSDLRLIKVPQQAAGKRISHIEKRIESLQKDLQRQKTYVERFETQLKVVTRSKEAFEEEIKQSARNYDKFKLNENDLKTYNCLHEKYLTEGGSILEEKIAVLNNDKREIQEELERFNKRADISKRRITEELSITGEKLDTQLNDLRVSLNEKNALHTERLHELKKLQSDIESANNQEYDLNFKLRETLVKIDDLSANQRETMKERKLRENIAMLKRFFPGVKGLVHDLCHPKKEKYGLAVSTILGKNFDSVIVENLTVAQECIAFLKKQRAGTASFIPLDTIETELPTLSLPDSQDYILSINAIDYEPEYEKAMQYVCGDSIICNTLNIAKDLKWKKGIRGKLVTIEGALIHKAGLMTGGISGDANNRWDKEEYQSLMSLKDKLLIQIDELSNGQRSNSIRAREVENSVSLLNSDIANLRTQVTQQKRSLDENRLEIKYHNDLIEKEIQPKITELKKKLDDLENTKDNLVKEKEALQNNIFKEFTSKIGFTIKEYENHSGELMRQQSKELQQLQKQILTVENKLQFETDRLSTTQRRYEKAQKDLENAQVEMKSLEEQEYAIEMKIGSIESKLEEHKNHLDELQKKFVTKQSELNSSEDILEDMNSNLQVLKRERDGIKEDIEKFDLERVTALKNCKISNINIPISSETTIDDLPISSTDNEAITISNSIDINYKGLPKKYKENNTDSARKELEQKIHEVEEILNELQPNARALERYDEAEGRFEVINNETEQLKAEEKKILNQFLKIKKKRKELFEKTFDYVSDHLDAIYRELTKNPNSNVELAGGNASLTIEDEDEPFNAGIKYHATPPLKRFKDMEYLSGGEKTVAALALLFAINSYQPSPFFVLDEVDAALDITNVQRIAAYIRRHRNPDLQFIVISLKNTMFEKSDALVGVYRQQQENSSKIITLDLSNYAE
T1 sequence (P47037 1-1230 K38I): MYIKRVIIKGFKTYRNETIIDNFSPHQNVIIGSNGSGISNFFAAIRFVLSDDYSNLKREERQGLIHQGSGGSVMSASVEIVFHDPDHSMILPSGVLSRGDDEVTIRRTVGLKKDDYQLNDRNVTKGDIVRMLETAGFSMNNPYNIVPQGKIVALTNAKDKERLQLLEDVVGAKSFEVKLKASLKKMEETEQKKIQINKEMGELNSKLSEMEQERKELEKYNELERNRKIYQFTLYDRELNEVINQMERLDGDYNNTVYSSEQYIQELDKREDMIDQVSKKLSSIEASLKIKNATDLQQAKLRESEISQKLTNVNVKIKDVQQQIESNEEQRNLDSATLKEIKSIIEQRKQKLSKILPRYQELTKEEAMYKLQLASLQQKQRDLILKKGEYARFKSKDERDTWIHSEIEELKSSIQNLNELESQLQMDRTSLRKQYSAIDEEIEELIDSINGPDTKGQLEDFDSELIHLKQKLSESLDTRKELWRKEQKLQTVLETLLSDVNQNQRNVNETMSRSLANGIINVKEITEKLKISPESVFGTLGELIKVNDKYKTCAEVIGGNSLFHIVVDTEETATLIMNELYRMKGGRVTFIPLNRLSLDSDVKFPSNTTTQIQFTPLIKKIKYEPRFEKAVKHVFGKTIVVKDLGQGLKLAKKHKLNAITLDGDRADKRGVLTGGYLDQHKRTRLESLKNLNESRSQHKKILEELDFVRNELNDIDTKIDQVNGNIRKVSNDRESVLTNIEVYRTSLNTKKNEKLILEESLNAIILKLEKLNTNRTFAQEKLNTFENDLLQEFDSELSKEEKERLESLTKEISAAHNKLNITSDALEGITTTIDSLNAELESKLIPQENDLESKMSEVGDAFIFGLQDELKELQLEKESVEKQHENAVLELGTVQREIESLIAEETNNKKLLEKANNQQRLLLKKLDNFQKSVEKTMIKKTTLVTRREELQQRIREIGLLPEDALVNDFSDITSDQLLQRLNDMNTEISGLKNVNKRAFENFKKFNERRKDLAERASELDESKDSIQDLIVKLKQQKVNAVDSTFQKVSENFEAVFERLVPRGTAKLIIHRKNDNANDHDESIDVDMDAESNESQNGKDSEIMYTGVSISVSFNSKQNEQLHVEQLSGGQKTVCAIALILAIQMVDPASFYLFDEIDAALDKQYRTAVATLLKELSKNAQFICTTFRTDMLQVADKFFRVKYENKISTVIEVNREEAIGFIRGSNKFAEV
T1 sequence (Q12158 1-566 partner): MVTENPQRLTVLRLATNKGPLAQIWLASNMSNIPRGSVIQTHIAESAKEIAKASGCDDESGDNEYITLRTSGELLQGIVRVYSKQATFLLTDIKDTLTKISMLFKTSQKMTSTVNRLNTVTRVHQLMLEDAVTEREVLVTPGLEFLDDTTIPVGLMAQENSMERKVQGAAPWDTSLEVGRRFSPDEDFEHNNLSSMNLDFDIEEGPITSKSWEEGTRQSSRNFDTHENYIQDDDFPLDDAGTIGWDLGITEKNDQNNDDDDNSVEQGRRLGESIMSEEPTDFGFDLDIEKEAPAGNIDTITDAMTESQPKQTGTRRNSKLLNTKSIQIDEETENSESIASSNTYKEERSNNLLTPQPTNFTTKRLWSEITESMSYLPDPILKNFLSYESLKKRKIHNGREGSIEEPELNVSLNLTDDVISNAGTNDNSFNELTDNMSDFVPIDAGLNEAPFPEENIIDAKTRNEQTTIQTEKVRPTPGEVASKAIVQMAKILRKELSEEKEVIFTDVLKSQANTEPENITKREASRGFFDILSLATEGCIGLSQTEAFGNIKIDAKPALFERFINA
As to the kind of experiment: microscale thermophoresis. Particulars: fluorescently labelled protein; Smc1 co-purified with Scc1-C, plus Smc3; binding abrogated. Background: In MST a laser heats a spot of the sample, and binding alters the fluorescence response.

As to `Nc1ncnc2c1ncn2[C@@H]1O[C@H](COP(=O)(O)OP(=O)(O)OP(=O)(O)O)[C@@H](O)[C@H]1O` [ATP], the microscale thermophoresis result was “each of the Walker A mutations efficiently abrogated binding to ATP and ADP”.

Take `Nc1ncnc2c1ncn2[C@@H]1O[C@H](COP(=O)(O)OP(=O)(O)O)[C@@H](O)[C@H]1O` [ADP]: the microscale thermophoresis result was “each of the Walker A mutations efficiently abrogated binding to ATP and ADP”.
